The numbers were not newly measured in patent publication US20170128595A1, “MICROBIAL GROWTH INDICATING MEDICAL DEVICES” (Indicator Systems International, Inc., priority 2013, published 2017), which cites them from elsewhere.

For this data set the following is noted: fluorescein; ionization equilibrium gives pH-dependent absorption and emission over pH 5 to 9.

Take fluorescein: the pKa (commonly the pH at which an ionisable group is half protonated) is recorded as 6.4.
